Like-named read-outs stand apart in the source and are kept apart here.
Columns and labels:
IGROV = assay: SRB colorimetric cell growth inhibition assay, IGROV; assay type: cell-based
In short: (§1)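 Growth inhibition (GI), cytostatic total growth inhibition (TGI) and cytotoxic cell-kill (LC) parameters were calculated from SRB-stained cultures held under constant compound exposure, triplicates averaged.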

SK-MEL-28 = assay: SRB colorimetric cell growth inhibition assay, SK-MEL-28; assay type: cell-based; details: Homo sapiens, SK-MEL-28, MEL-28; for GI50: GI=growth inhibition, read-out: GI50 MEL-28; for CC50: cell killing (cytotoxic effect), read-out: LC50 MEL-28; for IC (TGI): total growth inhibition (cytostatic effect), read-out: TGI MEL-28
In short: as §1

SK-BR-3 = assay: SRB colorimetric cell growth inhibition assay, SK-BR-3; assay type: cell-based; details: Homo sapiens; for GI50: GI=growth inhibition, read-out: GI50 SK-BR-3; for CC50: cell killing (cytotoxic effect), read-out: LC50 SK-BR-3; for IC (TGI): total growth inhibition (cytostatic effect), read-out: TGI SK-BR-3
In short: as §1

IGROV-ET = assay: SRB colorimetric cell growth inhibition assay, IGROV-ET (ET-743 resistant); assay type: cell-based; details: Homo sapiens, IGROV-ET; for GI50: GI=growth inhibition, read-out: GI50 IGROV-ET; for CC50: cell killing (cytotoxic effect), read-out: LC50 IGROV-ET; for IC (TGI): total growth inhibition (cytostatic effect), read-out: TGI IGROV-ET
In short: as §1

LoVo-Dox = assay: SRB colorimetric cell growth inhibition assay, LoVo-Dox (MDR); assay type: cell-based; details: Homo sapiens, LOVO-DOX; for GI50: GI=growth inhibition, read-out: GI50 LOVO-DOX; for CC50: cell killing (cytotoxic effect), read-out: LC50 LOVO-DOX; for IC (TGI): total growth inhibition (cytostatic effect), read-out: TGI LOVO-DOX
In short: as §1

PANC-1 = assay: SRB colorimetric cell growth inhibition assay, PANC-1; assay type: cell-based; details: Homo sapiens; for GI50: GI=growth inhibition, read-out: GI50 PANC-1; for CC50: cell killing (cytotoxic effect), read-out: LC50 PANC-1; for IC (TGI): total growth inhibition (cytostatic effect), read-out: TGI PANC-1
In short: as §1

A-549 = assay: SRB colorimetric cell growth inhibition assay, A-549; assay type: cell-based; details: Homo sapiens, A549, A-549; for GI50: GI=growth inhibition, read-out: GI50 A-549; for CC50: cell killing (cytotoxic effect), read-out: LC50 A-549; for IC (TGI): total growth inhibition (cytostatic effect), read-out: TGI A-549
In short: as §1

DU-145 = assay: SRB colorimetric cell growth inhibition assay, DU-145; assay type: cell-based; details: Homo sapiens; for GI50: GI=growth inhibition, read-out: GI50 DU-145; for CC50: cell killing (cytotoxic effect), read-out: LC50 DU-145; for IC (TGI): total growth inhibition (cytostatic effect), read-out: TGI DU-145
In short: as §1

HT-29 = assay: SRB colorimetric cell growth inhibition assay, HT-29; assay type: cell-based; details: Homo sapiens; for GI50: GI=growth inhibition, read-out: GI50 HT-29; for CC50: cell killing (cytotoxic effect), read-out: LC50 HT-29; for IC (TGI): total growth inhibition (cytostatic effect), read-out: TGI HT-29
In short: as §1

human topoisomerase I = biological target: T1, human topoisomerase I (Homo sapiens, UniProt P11387); assay: Topoisomerase I DNA relaxation assay (supercoiled plasmid DNA); assay type: biochemical; details: supercoiled plasmid DNA, each compound tested at 1 μM, agarose gel with ethidium bromide
T1 sequence (P11387 1-765): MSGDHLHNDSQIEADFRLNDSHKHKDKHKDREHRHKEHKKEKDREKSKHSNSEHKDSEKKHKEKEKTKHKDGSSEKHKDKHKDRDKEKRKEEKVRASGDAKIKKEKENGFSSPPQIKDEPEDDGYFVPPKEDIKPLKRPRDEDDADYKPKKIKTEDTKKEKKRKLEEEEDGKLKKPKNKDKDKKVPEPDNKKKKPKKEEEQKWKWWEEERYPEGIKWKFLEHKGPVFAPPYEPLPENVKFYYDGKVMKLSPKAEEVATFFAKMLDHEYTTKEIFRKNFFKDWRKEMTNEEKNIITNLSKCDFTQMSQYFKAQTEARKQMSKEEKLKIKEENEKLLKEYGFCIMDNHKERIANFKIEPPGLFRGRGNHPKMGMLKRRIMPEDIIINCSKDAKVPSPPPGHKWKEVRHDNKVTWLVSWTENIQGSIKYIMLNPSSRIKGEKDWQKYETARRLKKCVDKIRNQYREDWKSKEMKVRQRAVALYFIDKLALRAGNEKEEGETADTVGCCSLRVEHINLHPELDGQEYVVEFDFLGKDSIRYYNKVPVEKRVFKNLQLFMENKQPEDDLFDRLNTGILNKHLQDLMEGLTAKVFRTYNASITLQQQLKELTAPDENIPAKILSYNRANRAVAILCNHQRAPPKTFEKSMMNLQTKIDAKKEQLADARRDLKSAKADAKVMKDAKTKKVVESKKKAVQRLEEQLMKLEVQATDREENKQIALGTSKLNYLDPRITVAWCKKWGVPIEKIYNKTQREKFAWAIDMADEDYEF
In short: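 Supercoiled plasmid DNA was relaxed by human topoisomerase I with or without test compound at 1 μM. Products were resolved by agarose gel electrophoresis with ethidium bromide staining.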

LoVo = assay: SRB colorimetric cell growth inhibition assay, LoVo; assay type: cell-based; details: Homo sapiens; for GI50: GI=growth inhibition, read-out: GI50 LOVO; for CC50: cell killing (cytotoxic effect), read-out: LC50 LOVO; for IC (TGI): total growth inhibition (cytostatic effect), read-out: TGI LOVO
In short: as §1

LNCaP = assay: SRB colorimetric cell growth inhibition assay, LNCaP; assay type: cell-based; details: Homo sapiens, LNCaP, LN-caP
In short: as §1

K-562 = assay: SRB colorimetric cell growth inhibition assay, K-562; assay type: cell-based; details: Homo sapiens, K562, K-562
In short: as §1

[1] = Homo sapiens, IGROV; cell killing (cytotoxic effect); read-out: LC50 IGROV

| SMILES | CC50 (IGROV; [1]) [nM] | GI50 (SK-MEL-28) [nM] | CC50 (SK-MEL-28) [nM] | IC (TGI) (SK-MEL-28) [nM] | CC50 (SK-BR-3; SK-BR-3, SK-BR-3) [nM] | GI50 (IGROV-ET) [nM] | CC50 (IGROV-ET) [nM] | IC (TGI) (IGROV-ET) [nM] | GI50 (LoVo-Dox) [nM] | CC50 (LoVo-Dox) [nM] | IC (TGI) (LoVo-Dox) [nM] | CC50 (PANC-1; PANC-1, PANC-1) [nM] | IC (TGI) (PANC-1; PANC-1, PANC-1) [nM] | GI50 (A-549) [nM] | CC50 (A-549) [nM] | IC (TGI) (A-549) [nM] | CC50 (DU-145; DU-145, DU-145) [nM] | CC50 (HT-29; HT-29, HT-29) [nM] | CC50 (LoVo; LoVo) [nM] | further results |
| --- | --- | --- | --- | --- | --- | --- | --- | --- | --- | --- | --- | --- | --- | --- | --- | --- | --- | --- | --- | --- |
| COc1cc(-c2c3n(c4c(=O)oc5cc(OC(=O)CCc6ccccc6)c(OC)cc5c24)CCc2cc(OC(=O)CCc4ccccc4)c(OC)cc2-3)ccc1OC(=O)CCc1ccccc1 [Compound 11] | 5880 | 200 | 6180 | 1180 | 6660 | 5530 | 11100 | 11100 | 11100 | 11100 | 11100 | 11100 | 1760 | 128 | 11100 | 1540 | 2780 | 8230 | 10400 | GI50 (IGROV; Homo sapiens, IGROV; GI=growth inhibition; read-out: GI50 IGROV): 267 nM; IC (TGI) (IGROV; Homo sapiens, IGROV; total growth inhibition (cytostatic effect); read-out: TGI IGROV): 1140 nM; GI50 (SK-BR-3; SK-BR-3, SK-BR-3): 187 nM; IC (TGI) (SK-BR-3; SK-BR-3, SK-BR-3): 1200 nM; GI50 (PANC-1; PANC-1, PANC-1): 214 nM; GI50 (DU-145; DU-145, DU-145): 35.3 nM; IC (TGI) (DU-145; DU-145, DU-145): 151 nM; GI50 (HT-29; HT-29, HT-29): 38.4 nM; IC (TGI) (HT-29; HT-29, HT-29): 175 nM; stimulation of DNA cleavage by topoisomerase I / inhibition of topoisomerase I (nicked DNA band) in DNA relaxation assay (human topoisomerase I): inactive; GI50 (LoVo; LoVo): 42.4 nM; IC (TGI) (LoVo; LoVo): 1160 nM |
| COc1cc(-c2c3n(c4c(=O)oc5cc(OC(=O)[C@H](C)NC(=O)[C@H](C)NC(=O)OC(C)(C)C)c(OC)cc5c24)CCc2cc(OC(=O)[C@H](C)NC(=O)[C@H](C)NC(=O)OC(C)(C)C)c(OC)cc2-3)ccc1OC(=O)[C@H](C)NC(=O)[C@H](C)NC(=O)OC(C)(C)C [Compound 7] | 5790 | 652 | 3750 | 1640 | 5980 | 1860 | 8140 | 4580 | 3660 | 8140 | 8140 | 8040 | 3310 | 969 | 8140 | 2960 | 5410 | 8140 | 8140 | GI50 (IGROV; Homo sapiens; IGROV; GI=growth inhibition; read-out: GI50 IGROV): 1230 nM; IC (TGI) (IGROV; Homo sapiens; IGROV; total growth inhibition (cytostatic effect); read-out: TGI IGROV): 2670 nM; GI50 (SK-BR-3; SK-BR-3): 1140 nM; IC (TGI) (SK-BR-3; SK-BR-3): 2610 nM; GI50 (PANC-1; PANC-1): 1360 nM; GI50 (DU-145; DU-145): 993 nM; IC (TGI) (DU-145; DU-145): 2310 nM; GI50 (HT-29; HT-29): 871 nM; IC (TGI) (HT-29; HT-29): 3310 nM; GI50 (LNCaP; GI=growth inhibition, read-out: GI50 LN-caP): 425 nM; CC50 (LNCaP; cell killing (cytotoxic effect), read-out: LC50 LN-caP): 3610 nM; IC (TGI) (LNCaP; total growth inhibition (cytostatic effect), read-out: TGI LN-caP): 1360 nM; GI50 (LoVo; LOVO): 2000 nM; IC (TGI) (LoVo; LOVO): 5050 nM; GI50 (K-562; GI=growth inhibition, read-out: GI50 K-562): 596 nM; CC50 (K-562; cell killing (cytotoxic effect), read-out: LC50 K-562): 8140 nM; IC (TGI) (K-562; total growth inhibition (cytostatic effect), read-out: TGI K-562): 2680 nM |
